# In patent publication US7015228B2, “4-amino-2-(2-pyridyl)pyrimidines as microbicidal active substances” (Ciba Specialty Chemicals Corporation, priority 2001, dated 2006):
# Where two headings read alike, the source gives them in different places.
# Key:
# Assay type in all cases: cell-based
# [1] = system: Escherichia coli NCTC 8196; assay: Minimum inhibitory concentration (MIC) in microtitre plates; settings: for MIC: Escherichia coli, NCTC8196
# Experimental: (§1) Determination of the Minimum Inhibitory Concentration (MIC Value) in Microtitre Plates
# (§2) Casein-soybean flour-peptone broth for preparation of pre-cultures of test bacteria and yeast.
# (§3) Mycological slant agar for the pre-culture of moulds
# (§4) Examples of Test Organisms:
# (§5) The test substances are pre-dissolved in dimethyl sulfoxide (DMSO) and tested in a dilution series of 1:2.
# (§6) Bacteria and yeast are cultured overnight in CASO broth, the mould is cultured overnight on mycological slant agar, and washed off using 10 ml of 0.85% sodium chloride solution (+0.1% Triton X-100).
# (§7) All the test organisms are adjusted to an organism count of 1–5×10^6 CFU/ml using 0.85% sodium chloride solution.
# (§8) The test substances are pre-pipetted into microtitre plates in amounts of 8 μl per well.
# (§9) Pre-diluted organism suspensions are diluted 1:100 in CASO broth (bacteria and yeast) or Sabouraud 2% glucose broth (mould) and are added in amounts of 192 μl per well to the test substances.
# (§10) The test batches are incubated for 48 hours at 37° C. (bacteria and yeast) or for 5 days at 28° C. (mould).
# (§11) After incubation, the growth is determined on the basis of the turbidity of the test batches (optical density) at 620 nm in a microplate reader.
# (§12) The minimum inhibitory concentration (MIC value) is the concentration of substance at which there is found (compared to the growth of the control) an appreciable inhibition of growth (≦20% growth) of the test organisms.
# (§13) One microtitre plate is used for each test organism and substance concentration. All the substances are tested in duplicate.
# [2] = system: Staphylococcus hominis DMS 20328; assay: as above; settings: Table 7, 48 hours at 37° C., MIC = ≦20% growth compared to control; for MIC: Staphylococcus hominis, DMS20328, read-out: Minimum inhibitory concentration (MIC) S. hominis
# Experimental: as §1, §2, §3, §4, §5, §6, §7, §8, §9, §10, §11, §12, §13
# [3] = system: Enterococcus hirae ATCC 10541; assay: Minimum inhibitory concentration (MIC), further microorganisms; settings: Table 8, * = significant inhibition of growth, but not complete inhibition; for MIC: Enterococcus hirae, ATCC10541
# Experimental: as §1, §2, §3, §5, §6, §7, §8, §9, §10, §11, §12, §13
# [4] = system: Epidermophyton floccosum DSM 10709; assay: as above; settings: Table 8, * = significant inhibition of growth, but not complete inhibition; for MIC: Epidermophyton floccosum, DSM10709
# Experimental: as §1, §2, §3, §5, §6, §7, §8, §9, §10, §11, §12, §13
# [5] = system: Micrococcus luteus ATCC 9341; assay: as above; settings: Table 8, * = significant inhibition of growth, but not complete inhibition; for MIC: Micrococcus luteus, ATCC9341
# Experimental: as §1, §2, §3, §5, §6, §7, §8, §9, §10, §11, §12, §13
# [6] = system: S. epidermidis ATCC 12228; assay: as above; settings: Table 8, * = significant inhibition of growth, but not complete inhibition; for MIC: Staphylococcus epidermidis, ATCC12228
# Experimental: as §1, §2, §3, §5, §6, §7, §8, §9, §10, §11, §12, §13
# [7] = system: Staphylococcus aureus ATCC 9144; assay: as above; settings: Table 8, * = significant inhibition of growth, but not complete inhibition; for MIC: Staphylococcus aureus, ATCC9144
# Experimental: as §1, §2, §3, §5, §6, §7, §8, §9, §10, §11, §12, §13
# [8] = system: Trichophyton mentagrophytes ATCC 9533; assay: as above; settings: Table 8, * = significant inhibition of growth, but not complete inhibition; for MIC: Trichophyton mentagrophytes, ATCC9533
# Experimental: as §1, §2, §3, §5, §6, §7, §8, §9, §10, §11, §12, §13
# [9] = Table 7, 48 hours at 37° C., MIC = ≦20% growth compared to control
# [10] = Table 8, * = significant inhibition of growth, but not complete inhibition
# [11] = Table 7, 48 hours at 37° C., MIC = ≦20% growth compared to control, read-out: Minimum inhibitory concentration (MIC) E. coli
# [12] = Table 8, * = significant inhibition of growth, but not complete inhibition, read-out: Minimum inhibitory concentration (MIC) E. coli NCTC 8196
"Minimum inhibitory concentration (MIC) E. coli [1, 9]","Minimum inhibitory concentration (MIC) E. coli NCTC 8196 [1, 10]",Minimum inhibitory concentration (MIC) S. hominis [2],Minimum inhibitory concentration (MIC) Enterococcus hirae ATCC 10541 [3],Minimum inhibitory concentration (MIC) Epidermophyton floccosum DSM 10709 [4],Minimum inhibitory concentration (MIC) Micrococcus luteus ATCC 9341 [5],Minimum inhibitory concentration (MIC) S. epidermidis ATCC 12228 [6],Minimum inhibitory concentration (MIC) Staphylococcus aureus ATCC 9144 [7],Minimum inhibitory concentration (MIC) Trichophyton mentagrophytes ATCC 9533 [8],"MIC [1, 11]","MIC [1, 12]",MIC [2],MIC [3],MIC [4],MIC [5],MIC [6],MIC [7],MIC [8],Structure (SMILES)
60 µg/mL,>60 µg/mL,7.5 µg/mL,30 µg/mL,>60 µg/mL,3.75 µg/mL,*15 μg/mL,30 µg/mL,>60 µg/mL,,,,,,,,,,CC(C)c1cc(NCCCCCCCCCCCCN)nc(-c2ccccn2)n1 [compound 43]
>120 µg/mL,>60 µg/mL,7.5 µg/mL,30 µg/mL,*15 μg/mL,3.75 µg/mL,*15 μg/mL,15 µg/mL,*30 μg/mL,,,,,,,,,,CCCCCCCCNc1nc(-c2ccccn2)nc(C)c1CC [compound 9]
,,,,,,,,,> 80 µg/mL,> 60 µg/mL,5 µg/mL,3.75 µg/mL,60 µg/mL,< 0.5 µg/mL,3.75 µg/mL,7.5 µg/mL,60 µg/mL,CCCCCCCCCCNc1cc(C(C)C)nc(-c2ccccn2)n1 [compound 47]
>120 µg/mL,>60 µg/mL,3.75 µg/mL,7.5 µg/mL,>60 µg/mL,<0.5 µg/mL,1.9 µg/mL,*1.9 μg/mL,>60 µg/mL,,,,,,,,,,CCCCCCCCCNc1cc(C(C)(C)C)nc(-c2ccccn2)n1 [compound 58]
>120 µg/mL,>60 µg/mL,3.75 µg/mL,60 µg/mL,>60 µg/mL,>0.5 µg/mL,*60 μg/mL,>60 µg/mL,>60 µg/mL,,,,,,,,,,CCCCCCCCCNc1cc(C(F)(F)F)nc(-c2ccccn2)n1 [compound 34]
>120 µg/mL,>60 µg/mL,3.75 µg/mL,7.5 µg/mL,*60 μg/mL,>0.5 µg/mL,7.5 µg/mL,15 µg/mL,>60 µg/mL,,,,,,,,,,CCCCCCCNc1cc(C(F)(F)F)nc(-c2ccccn2)n1 [compound 32]
>80 µg/mL,>60 µg/mL,2.5 µg/mL,15 µg/mL,>60 µg/mL,<0.5 µg/mL,3.75 µg/mL,15 µg/mL,>60 µg/mL,,,,,,,,,,CCCCCCCCNc1cc(C(F)(F)F)nc(-c2ccccn2)n1 [compound 33]
>120 µg/mL,>60 µg/mL,3.75 µg/mL,3.75 µg/mL,*7.5 μg/mL,1.0 µg/mL,7.5 µg/mL,7.5 µg/mL,15 µg/mL,,,,,,,,,,CCCCCCCCCNc1nc(-c2ccccn2)nc(C)c1C(C)C [compound 70]
,,,,,,,,,> 120 µg/mL,> 30 µg/mL,> 120 µg/mL,30 µg/mL,> 60 µg/mL,1 µg/mL,7.5 µg/mL,15 µg/mL,> 60 µg/mL,CCCCCCCCCCCCCCCCNc1cc(C(F)(F)F)nc(-c2ccccn2)n1 [compound 37]
>120 µg/mL,>30 µg/mL,7.5 µg/mL,7.5 µg/mL,60* μg/mL,3.75 µg/mL,15 µg/mL,15 µg/mL,>60 µg/mL,,,,,,,,,,CCCCCCCNc1nc(-c2ccccn2)nc(C)c1C(C)C [compound 68]
>120 µg/mL,>60 µg/mL,3.75 µg/mL,7.5 µg/mL,>60 µg/mL,1.9 µg/mL,7.5 µg/mL,7.5 µg/mL,>60 µg/mL,,,,,,,,,,CCCCCCCCCCNc1nc(-c2ccccn2)nc(C)c1CC [compound 11]
>120 µg/mL,>30 µg/mL,3.75 µg/mL,3.75 µg/mL,>60 µg/mL,3.75 µg/mL,7.5 µg/mL,7.5 µg/mL,>60 µg/mL,,,,,,,,,,CCCCCCCCNc1cc(C(C)C)nc(-c2ccccn2)n1 [compound 45]

Structure (SMILES),"Minimum inhibitory concentration (MIC) E. coli [1, 9]","Minimum inhibitory concentration (MIC) E. coli NCTC 8196 [1, 10]",Minimum inhibitory concentration (MIC) S. hominis [2],Minimum inhibitory concentration (MIC) Enterococcus hirae ATCC 10541 [3],Minimum inhibitory concentration (MIC) Epidermophyton floccosum DSM 10709 [4],Minimum inhibitory concentration (MIC) Micrococcus luteus ATCC 9341 [5],Minimum inhibitory concentration (MIC) S. epidermidis ATCC 12228 [6],Minimum inhibitory concentration (MIC) Staphylococcus aureus ATCC 9144 [7],Minimum inhibitory concentration (MIC) Trichophyton mentagrophytes ATCC 9533 [8],"MIC [1, 11]","MIC [1, 12]",MIC [2],MIC [3],MIC [4],MIC [5],MIC [6],MIC [7],MIC [8]
CC(C)(C)c1cc(NCCc2ccccc2)nc(-c2ccccn2)n1 [compound 63],>120 µg/mL,*60 μg/mL,3.75 µg/mL,30 µg/mL,*15 μg/mL,7.5 µg/mL,30 µg/mL,15 µg/mL,*60 μg/mL,,,,,,,,,
